Marks after values point to notes of the source that are not given here.
Legend:
C. acnes = assay: Labskin efficacy of rhamnolipids compared to salicylic acid and benzoyl peroxide (Example 5); format: cell-based, Cutibacterium acnes
Protocol: A study was conducted to compare the efficacy of the rhamnolipid mixture of the present technology with salicylic acid and benzoyl peroxide, two common over-the-counter anti-acne actives. The samples containing salicylic acid and benzoyl peroxide were additionally mixed using a tip sonicator to ensure complete dissolving or adequeate distribution of the active.
The skin analog substrate (Labskin) was prepared as described in Example 4. The C. acnes microorganism was cultured as described in Example 4, and each Labskin unit was inoculated as described in Example 4. The Labskin units were incubated at 37° C. for 24 hours, and after 24 hours, were treated with 11 microliters of control (dPBS), vehicle, or test item. All Labskin units were then incubated at 37° C. for 24 hours, after which biopsy samples of 8 mm in diameter were aseptically removed from the center of each Labskin unit and viable microbial numbers were assayed by recovery on appropriate culture medium.
Technical replicate counts obtained from selective solid media were averaged and used to calculate the colony forming units per square cm (CFU cm^−2). The enumeration of C. acnes for the control, vehicle, and test samples is shown graphically in FIG. 4.
The Log10 difference between the dPBS control and the vehicle and test samples was calculated as described in Example 4, and the Logio difference results are shown graphically in FIG. 5.

C. acnes ATCC 6919 = assay: Efficacy against C. acnes, aqueous test samples (Example 1); format: cell-based, Cutibacterium acnes; conditions: Tested Conc. 0.3%, pH 2.7
Protocol: A study was conducted to determine the antimicrobial activity of a rhamnolipid mixture of the present technology alone against C. acnes, available from American Type Culture Collection (ATCC), Manassas, VA as ATCC 6919. Test samples were prepared by mixing 6.0% by weight of the rhamnolipid mixture into an aqueous base. Two samples were prepared, one sample using a rhamnolipid mixture processed by a non-solvent purification process, and the other sample using a rhamnolipid mixture processed by a solvent extraction process. The rhamnolipid mixtures in each sample comprise a weight ratio of mono-rhamnolipids to di-rhamnolipids in the range of 43:57 to 45:55.

[1] = water at 25° C.; cited from earlier work
[2] = tested on: Cutibacterium acnes (ATCC #6919); assay: Time-dependency comparative testing, flow cytometry viability (Example 6); format: cell-based
Protocol: A study was conducted to compare the time-dependent efficacy of a rhamnolipid mixture of the present technology (Example 6 Composition), a commercially available rhamnolipid product (Comparative Composition), and salicylic acid against Cutibacterium acnes (ATCC #6919). […] The Comparative Composition comprised a mixture of rhamnolipids having a mono-rhamnolipid: di-rhamnolipid ratio of about 4:96 Test samples were prepared by diluting the rhamnolipids and the salicylic acid in sterile water. […] The concentrations of salicylic acid actives in the test samples were 0.03 wt %, 0.1 wt %, and 0.3 wt %. Prior to initiation of the study, samples were sufficiently pre-reduced to remove oxygen by using an indirect atmospheric sequestering of oxygen using hydrogen reaction over palladium catalyst. […] The sample aliquots were neutralized by dilution in an oxygen-reducing buffer containing the flow cytometry dyes, SYTO 9 and Propidium Iodide. Samples were analyzed using flow cytometry where cells were characterized by morphology and viability in comparison to a deionized water control.

[3] = 15 min Exposure, Tested Conc. 0.03%
[4] = 15 min Exposure, Tested Conc. 0.10%
[5] = 15 min Exposure, Tested Conc. 0.30%
[6] = 60 min Exposure, Tested Conc. 0.03%
[7] = 60 min Exposure, Tested Conc. 0.10%
[8] = 60 min Exposure, Tested Conc. 0.30%

O=C(OOC(=O)c1ccccc1)c1ccccc1 [benzoyl peroxide]
Log10 difference of C. acnes vs dPBS control (FIG. 5) (C. acnes; benzoyl peroxide alone (5% and 2.5% w/w) in 20% w/w Tween in dPBS): significant decrease in the recovered population of C. acnes

O=C(O)c1ccccc1O [Salicylic acid in DI Water, salicylic acid]
Reduction % (C. acnes ATCC 6919; 1 h Exposure): >99.997%
Reduction Log10 CFU/mL (C. acnes ATCC 6919; 1 h Exposure): >4.6 Log10 CFU/mL
Reduction % (C. acnes ATCC 6919; 24 h Exposure): >99.995%
Reduction Log10 CFU/mL (C. acnes ATCC 6919; 24 h Exposure): >4.3 Log10 CFU/mL
Enumeration of C. acnes compared with dPBS control (FIG. 4) (C. acnes; 0.5% w/w in 20% w/w Tween in dPBS, Labskin, 24 hours): slight decrease in the average amount of C. acnes
Log10 difference of C. acnes vs dPBS control (FIG. 5) (C. acnes; 0.5% w/w salicylic acid in 20% w/w Tween in dPBS): moderate decrease in C. acnes recovered
Log10 difference of C. acnes vs dPBS control (FIG. 5) (C. acnes; 2% w/w salicylic acid in 20% w/w Tween in dPBS): noticeable decrease in the recovered population of C. acnes
solubility limit in water [1]: 0.3% *
Log10 cells/mL Reduction [2, 3]: 0.10 Log10 cells/mL
Percent Reduction [2, 3]: 20.6%
Log10 cells/mL Reduction [2, 4]: 0.10 Log10 cells/mL
Percent Reduction [2, 4]: 20.6%
Log10 cells/mL Reduction [2, 5]: 0.57 Log10 cells/mL
Percent Reduction [2, 5]: 73.2%
Log10 cells/mL Reduction [2, 6]: 0.35 Log10 cells/mL
Percent Reduction [2, 6]: 55.2%
Log10 cells/mL Reduction [2, 7]: 1.14 Log10 cells/mL
Percent Reduction [2, 7]: 92.8%
Log10 cells/mL Reduction [2, 8]: >2.30 Log10 cells/mL
Percent Reduction [2, 8]: >99.5%
